Laboratory results published in US12065430B2, “Indazole compound or salt thereof” (TAIHO PHARMACEUTICAL CO., LTD., priority 2018, dated 2024).

Biological target: G12C K-Ras4B (1-169) (Homo sapiens (Human), UniProt P01116, G12C)
Assay: Test of compounds on whether to bind to KRASG12C (LC-MS compound binding rate)
Settings: final compound concentration of 2 μM, 1 μM protein, 25° C. for 2 hours
Procedure: Test compounds were prepared in the form of a 10 mM DMSO solution.
K-Ras4B (1-169) and G12C K-Ras4B (1-169) proteins were mixed and diluted with a buffer (1×TBS, 0.1 mM TCEP) to prepare individual 1 μM protein solutions. A 10 mM test compound was diluted tenfold with DMSO to make a 1 mM solution, and then diluted fivefold with DMSO to make a 200 μM solution. The 200 μM solution was further diluted fivefold to make a 40 μM solution. When the final compound concentration was 10 μM, 1 μL of a 200 μM test compound was added to 19 μL of a 1 μM protein solution. When the final compound concentration was 2 μM, 1 μL of a 40 μM test compound was added to 19 μL of a 1 μM protein solution. The mixtures were stored in an incubator at 25° C. for 2 hours, and 80 μL of a 1×TBS solution containing 0.2% formic acid was added thereto to end the reaction, followed by LC-MS measurement. LC-MS measurement was performed using Xevo G2-S Q-Tof manufactured by Waters, and reverse-phase chromatography was performed with a desalting column. A mass spectrum of positive ions was obtained by electrospray. For a mass spectrum, a spectrum of a polyvalent ion was collectively converted to a molecular weight by using OpenLynx software by the MaxEnt technique, and a compound binding rate was obtained from the ratio of a signal intensity that corresponds to the molecular weight of a protein to a signal intensity that corresponds to the molecular weight of a compound binding to the protein.
By obtaining the compound binding rate for K-Ras4B (1-169) and the compound binding rate for G12C K-Ras4B (1-169) at the same time, information of the selectivity for G12C K-Ras4B (1-169) was obtained at the same time.
The test compounds were measured at their final compound concentration of 2 μM. […] Almost no compounds of the present invention binded to K-Ras4B (1-169). The “binding rate” (%) for each of K-Ras4B (1-169) and G12C K-Ras4B (1-169) refers to the ratio of the signal intensity of binded forms to the sum of the signal intensity of non-binded forms and the signal intensity of binded forms.

Row | SMILES | binding rate for G12C K-Ras4B (1-169)
1 | C=CC(=O)N1C[C@@H](NC(=O)c2c(C)nc(CNc3n[nH]c4cc(Cl)c(C(C)(C)C)cc34)n2C)[C@H]1C (relative stereo) [Example 52, N-((2R*,3R*)-1-acryloyl-2-methylazetidin-3-yl)-2-(((5-(tert-butyl)-6-chloro-1H-indazol-3-yl)amino)methyl)-1,4-dimethyl-1H-imidazole-5-carboxamide] | B (a binding rate of 60% or more and less than 80% is rated “B,”)
2 | C=CC(=O)N1C[C@@H](NC(=O)c2c(C)nc(CNc3n[nH]c4cc(Cl)c(C(C)(C)C)cc34)n2C)[C@@H]1C (relative stereo) [Example 59, N-(trans-1-acryloyl-2-methylazetidin-3-yl)-2-(((5-(tert-butyl)-6-chloro-1H-indazol-3-yl)amino)methyl)-1,4-dimethyl-1H-imidazole-5-carboxamide] | B (a binding rate of 60% or more and less than 80% is rated “B,”)
3 | C=CC(=O)N1CC(NC(=O)c2cnc(CNc3n[nH]c4cc(Cl)c(C(C)(C)C)cc34)n2C)C1 [Example 1, N-(1-acryloylazetidin-3-yl)-2-(((5-(tert-butyl)-6-chloro-1H-indazol-3-yl)amino)methyl)-1-methyl-1H-imidazole-5-carboxamide] | A (a binding rate of 80% or more is rated “A,”)
4 | C=CC(=O)N1CC(NC(=O)c2sc(CNc3n[nH]c4cc(Cl)c(C(C)(C)C)cc34)nc2C)C1 [Example 2, N-(1-acryloylazetidin-3-yl)-2-(((5-(tert-butyl)-6-chloro-1H-indazol-3-yl)amino)methyl)-4-methylthiazole-5-carboxamide] | B (a binding rate of 60% or more and less than 80% is rated “B,”)
5 | C=CC(=O)N1CC(NC(=O)c2cnc(C(C)Nc3n[nH]c4cc(Cl)c(C(C)(C)C)cc34)n2C)C1 (stereo not drawn) [Example 4, N-(1-acryloylazetidin-3-yl)-2-(1-((5-(tert-butyl)-6-chloro-1H-indazol-3-yl)amino)ethyl)-1-methyl-1H-imidazole-5-carboxamide] | C (a binding rate of 40% or more and less than 60% is rated “C,”)
6 | [2H]C([2H])(Nc1n[nH]c2cc(Cl)c(C(C)(C)C)cc12)c1nc(C)c(C(=O)NC2CN(C(=O)C=C)C2)n1C [Example 5, N-(1-acryloylazetidin-3-yl)-2-(((5-(tert-butyl)-6-chloro-1H-indazol-3-yl)amino)methyl-d2)-1,4-dimethyl-1H-imidazole-5-carboxamide] | A (a binding rate of 80% or more is rated “A,”)
7 | C=CC(=O)N1CC(NC(=O)c2c(Cl)c(CNc3n[nH]c4cc(Cl)c(C(C)(C)C)cc34)nn2C)C1 [Example 6, N-(1-acryloylazetidin-3-yl)-3-(((5-(tert-butyl)-6-chloro-1H-indazol-3-yl)amino)methyl)-4-chloro-1-methyl-1H-pyrazole-5-carboxamide] | B (a binding rate of 60% or more and less than 80% is rated “B,”)
8 | C=CC(=O)N1CC(NC(=O)c2csc(CNc3n[nH]c4cc(Cl)c(C(C)(C)C)cc34)n2)C1 [Example 7, N-(1-acryloylazetidin-3-yl)-2-(((5-(tert-butyl)-6-chloro-1H-indazol-3-yl)amino)methyl)thiazole-4-carboxamide] | D (a binding rate of 20% or more and less than 40% is rated “D,”)
9 | C=CC(=O)N1CC(NC(=O)c2cnc(CNc3n[nH]c4cc(Cl)c(C(C)(C)C)cc34)s2)C1 [Example 8, N-(1-acryloylazetidin-3-yl)-2-(((5-(tert-butyl)-6-chloro-1H-indazol-3-yl)amino)methyl)thiazole-5-carboxamide] | B (a binding rate of 60% or more and less than 80% is rated “B,”)
10 | C=CC(=O)N1CC(NC(=O)c2cc(CNc3n[nH]c4cc(Cl)c(C(C)(C)C)cc34)nn2C)C1 [Example 9, N-(1-acryloylazetidin-3-yl)-3-(((5-(tert-butyl)-6-chloro-1H-indazol-3-yl)amino)methyl)-1-methyl-1H-pyrazole-5-carboxamide] | D (a binding rate of 20% or more and less than 40% is rated “D,”)
11 | C=CC(=O)N1CC(NC(=O)c2c(C)c(CNc3n[nH]c4cc(Cl)c(C(C)(C)C)cc34)nn2C)C1 [Example 10, N-(1-acryloylazetidin-3-yl)-3-(((5-(tert-butyl)-6-chloro-1H-indazol-3-yl)amino)methyl)-1,4-dimethyl-1H-pyrazole-5-carboxamide] | B (a binding rate of 60% or more and less than 80% is rated “B,”)
12 | C=CC(=O)N1CC(NC(=O)c2oc(CNc3n[nH]c4cc(Cl)c(C(C)(C)C)cc34)nc2C)C1 [Example 11, N-(1-acryloylazetidin-3-yl)-2-(((5-(tert-butyl)-6-chloro-1H-indazol-3-yl)amino)methyl)-4-methyloxazole-5-carboxamide] | B (a binding rate of 60% or more and less than 80% is rated “B,”)
13 | C=CC(=O)N1CC(NC(=O)c2c(C)nc(CNc3n[nH]c4cc(Cl)c(C(C)(C)C)cc34)n2CC)C1 [Example 12, N-(1-acryloylazetidin-3-yl)-2-(((5-(tert-butyl)-6-chloro-1H-indazol-3-yl)amino)methyl)-1-ethyl-4-methyl-1H-imidazole-5-carboxamide] | B (a binding rate of 60% or more and less than 80% is rated “B,”)
14 | C=CC(=O)N1CC(NC(=O)c2c(C)nc(CNc3n[nH]c4cc(Cl)c(C(C)(C)C)cc34)n2CCOC)C1 [Example 14, N-(1-acryloylazetidin-3-yl)-2-(((5-(tert-butyl)-6-chloro-1H-indazol-3-yl)amino)methyl)-1-(2-methoxyethyl)-4-methyl-1H-imidazole-5-carboxamide] | B (a binding rate of 60% or more and less than 80% is rated “B,”)
15 | C=CC(=O)N1CC(NC(=O)c2c(C)nc(CNc3n[nH]c4cc(Cl)c(C(C)(C)C)cc34)n2Cc2ccccc2)C1 [Example 15, N-(1-acryloylazetidin-3-yl)-1-benzyl-2-(((5-(tert-butyl)-6-chloro-1H-indazol-3-yl)amino)methyl)-4-methyl-1H-imidazole-5-carboxamide] | A (a binding rate of 80% or more is rated “A,”)
16 | C=CC(=O)N1CC(NC(=O)c2c(C)nc(CNc3n[nH]c4cc(Cl)c(C(C)(C)C)cc34)n2CCN(C)C)C1 [Example 16, N-(1-acryloylazetidin-3-yl)-2-(((5-(tert-butyl)-6-chloro-1H-indazol-3-yl)amino)methyl)-1-(2-(dimethylamino)ethyl)-4-methyl-1H-imidazole-5-carboxamide] | B (a binding rate of 60% or more and less than 80% is rated “B,”)
17 | C=CC(=O)N1CC(NC(=O)c2c(C)nc(CNc3n[nH]c4cc(Cl)c(C(C)(C)C)cc34)n2C2CCCC2)C1 [Example 17, N-(1-acryloylazetidin-3-yl)-2-(((5-(tert-butyl)-6-chloro-1H-indazol-3-yl)amino)methyl)-1-cyclopentyl-4-methyl-1H-imidazole-5-carboxamide] | B (a binding rate of 60% or more and less than 80% is rated “B,”)
18 | C=CC(=O)N1CC(NC(=O)c2c(C)nc(CNc3n[nH]c4cc(Cl)c(C(C)(C)C)cc34)n2CCCC)C1 [Example 18, N-(1-acryloylazetidin-3-yl)-1-butyl 2-(((5-(tert-butyl)-6-chloro-1H-indazol-3-yl)amino)methyl)-4-methyl-1H-imidazole-5-carboxamide] | B (a binding rate of 60% or more and less than 80% is rated “B,”)
19 | C=CC(=O)N1CC(NC(=O)c2c(C)nc(CNc3n[nH]c4cc(Cl)c(C(C)(C)C)cc34)n2CCC)C1 [Example 19, N-(1-acryloylazetidin-3-yl)-2-(((5-(tert-butyl)-6-chloro-1H-indazol-3-yl)amino)methyl)-4-methyl-1-propyl-1H-imidazole-5-carboxamide] | A (a binding rate of 80% or more is rated “A,”)
20 | C=CC(=O)N1CC(NC(=O)c2c(C)nc(CNc3n[nH]c4cc(Cl)c(C(C)(C)C)cc34)n2C(C)CC)C1 (stereo not drawn) [Example 20, N-(1-acryloylazetidin-3-yl)-1-(sec-butyl)-2-(((5-(tert-butyl)-6-chloro-1H-indazol-3-yl)amino)methyl)-4-methyl-1H-imidazole-5-carboxamide] | A (a binding rate of 80% or more is rated “A,”)
21 | C=CC(=O)N1CC(NC(=O)c2c(C)nc(CNc3n[nH]c4cc(Cl)c(C(C)(C)C)cc34)n2C(F)F)C1 [Example 21, N-(1-acryloylazetidin-3-yl)-2-(((5-(tert-butyl)-6-chloro-1H-indazol-3-yl)amino)methyl)-1-(difluoromethyl)-4-methyl-1H-imidazole-5-carboxamide] | B (a binding rate of 60% or more and less than 80% is rated “B,”)
